Among the test systems are OVCAR-8 ovarian; HL-60(TB) leukemia; SK-OV-3 ovarian; SNB-75 CNS; PC-3 prostate; OVCAR-3 ovarian; COLO 205 colon; MDA-MB-435; MCF7 breast; KM12 colon.
What all share (experiment): NCI anticancer screen, dose series, 48 h

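Step 1: Grow cells in 96-well plates. Step 2: Expose to compound for 48 hours at 5 concentrations. Step 3: Interpolate endpoints linearly; if unreached, use highest concentration. TGI is the concentration that stops growth completely.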

Take `COc1cc(CCNC2=CC(=O)c3cccnc3C2=O)ccc1O`: the TGI came to 12 µM with OVCAR-8 ovarian; 9.43 µM with HL-60(TB) leukemia; 11.1 µM with SK-OV-3 ovarian; 2.06 µM in the assay with SNB-75 CNS; 18.7 µM with PC-3 prostate; 5.51 µM with OVCAR-3 ovarian. Moreover, the TGI in the assay on COLO 205 colon is 3 µM; in the assay with MDA-MB-435, 0.317 µM; in the assay on MCF7 breast, 1.3 µM; in the assay on KM12 colon, 13.2 µM.
As for `COC(=O)c1ccc(CCC2=CC(=O)C(Br)=CC2=O)cc1`, the TGI in the assay on OVCAR-8 ovarian came to 32 µM; in the assay on HL-60(TB) leukemia, 5.2 µM; in the assay on SK-OV-3 ovarian, 38 µM; in the assay on SNB-75 CNS it was 26.9 µM; in the assay with PC-3 prostate, 30.9 µM; in the assay with OVCAR-3 ovarian, 31.4 µM. Moreover, the TGI came out at 18.7 µM in the assay with COLO 205 colon, 31.2 µM in the assay with MDA-MB-435, 34.9 µM with MCF7 breast and 32.3 µM in the assay with KM12 colon.
Regarding `COC(=O)c1c(C)ccc2c(O)c3c(cc12)C(=O)c1c2c(cc(O)c1C3=O)C1(C)OC(C)(O2)C(O)C(N(C)C)C1O` (stereo not given), the TGI with OVCAR-8 ovarian was 2.27 µM; with HL-60(TB) leukemia, 15.4 µM; in the assay on SK-OV-3 ovarian, more than 100 µM; in the assay on SNB-75 CNS, 12.7 µM; with PC-3 prostate it was 4.89 µM; in the assay on OVCAR-3 ovarian, 9.59 µM. For the same molecule, the TGI in the assay on COLO 205 colon turned out to be 7.56 µM; with MDA-MB-435, 2.97 µM; in the assay with MCF7 breast, 8.04 µM; in the assay on KM12 colon, 2.97 µM.
As to `O=c1[nH]nc(-c2ccc([N+](=O)[O-])cc2)n1/N=C/c1ccc([N+](=O)[O-])cc1`, the TGI with OVCAR-8 ovarian, in the assay on HL-60(TB) leukemia, in the assay on SK-OV-3 ovarian, in the assay on SNB-75 CNS, in the assay with PC-3 prostate and in the assay with OVCAR-3 ovarian was more than 100 µM throughout. Besides, the TGI with COLO 205 colon, with MDA-MB-435, with MCF7 breast and in the assay with KM12 colon was more than 100 µM in each case.
Take `NNC(=Nc1ccccc1)SCc1ccccc1`: the TGI in the assay on OVCAR-8 ovarian, with HL-60(TB) leukemia, in the assay with SK-OV-3 ovarian, with SNB-75 CNS, in the assay with PC-3 prostate and in the assay on OVCAR-3 ovarian was more than 100 µM each time. The TGI in the assay on COLO 205 colon, in the assay with MDA-MB-435, in the assay with MCF7 breast and in the assay on KM12 colon was more than 100 µM each time.
In the case of `Cc1c(C#N)c2nnn(-c3ccc([N+](=O)[O-])cc3)c(=O)n2c1-c1ccccc1`, the TGI in the assay with OVCAR-8 ovarian stood at 25.7 µM; with HL-60(TB) leukemia, 60.3 µM; in the assay on SK-OV-3 ovarian, 79.4 µM; in the assay with SNB-75 CNS it was 39.7 µM; in the assay with PC-3 prostate, 14.7 µM; in the assay on OVCAR-3 ovarian, 10 µM. In addition, the TGI with COLO 205 colon amounted to 22.9 µM; in the assay on MDA-MB-435 it was 42.9 µM; in the assay on MCF7 breast, 19.6 µM; in the assay on KM12 colon, 20.5 µM.
Consider `CC(/C=N/N(C)C1=NCCCCN1)=N/N(C)C1=NCCCCN1`, for which the TGI with OVCAR-8 ovarian, in the assay with HL-60(TB) leukemia, with SK-OV-3 ovarian, in the assay with SNB-75 CNS, in the assay with PC-3 prostate and in the assay with OVCAR-3 ovarian was more than 100 µM each time. Also, the TGI with COLO 205 colon, in the assay with MDA-MB-435, in the assay with MCF7 breast and in the assay with KM12 colon was more than 100 µM throughout.
Take `CCOC(=O)c1[nH]cnc1/N=N/N(C)N`: the TGI in the assay with OVCAR-8 ovarian is more than 100 µM; in the assay with HL-60(TB) leukemia, 68.6 µM; in the assay with SK-OV-3 ovarian, more than 100 µM; in the assay with SNB-75 CNS it was more than 100 µM; with PC-3 prostate, more than 100 µM; with OVCAR-3 ovarian, more than 100 µM. Further, the TGI in the assay on COLO 205 colon was more than 100 µM; with MDA-MB-435 it was more than 100 µM; with MCF7 breast, more than 100 µM; in the assay on KM12 colon it was 14 µM.
As to `O=C1OC(C2Cc3ccccc3C2=O)c2ccccc21` (stereo not given), the TGI in the assay on OVCAR-8 ovarian, in the assay on HL-60(TB) leukemia, with SK-OV-3 ovarian, in the assay with SNB-75 CNS, in the assay with PC-3 prostate and in the assay with OVCAR-3 ovarian was more than 100 µM each time. In addition, the TGI in the assay on COLO 205 colon, in the assay with MDA-MB-435, with MCF7 breast and in the assay with KM12 colon was more than 100 µM throughout.

The values are drawn from PubChem BioAssay (NCI).
